Assay results published in patent US7875604B2, “Compounds that inhibit HIV particle formation” (University of Virginia Patent Foundation, priority 2004, dated 2011).
Where “and” joins values, the source holds several entries; their conditions need not be identical. Identical values can stand only once. Like-named read-outs stand apart in the source and are kept apart here.

Experiments:
[1] = tested on: HeLa; test: HIV-1 Rev assay toxicity/non-specificity readout (Firefly Luciferase); format: cell-based; conditions: 50% inhibition of Firefly Luciferase (toxicity/non-specificity), 24 hours; read-out: TC50 (the source's name)
Method: (§1) The eight compounds listed in Table 1 were also tested in an assay that measured HIV-1 Rev function. The HIV-1 Rev assay is based upon the use of a reporter for detecting whether drug candidates are capable of inhibiting the function of the viral Rev protein. The reporter used for these assays is the Renilla Luciferase protein, which is an enzyme that produces detectable light when mixed with certain chemicals. For this assay, a cell line has been developed in which the production of the reporter by the cells requires the function of HIV-1 Rev. Therefore, if a drug candidate inhibits the function of Rev, it decreases the amount of the reporter produced by the cells. By using Renilla Luciferase as the reporter, the inhibition of Rev is easily detected as a decrease in the amount of light produced by the cells when mixed with the appropriate chemicals. Furthermore, the cell line for this assay has been engineered to use a second similar reporter (Firefly Luciferase) that detects whether drug candidates are toxic.
(§2) Compounds were tested in the Rev assay using the maximum high-test concentration possible based on the supplied stocks as shown in Table 3. Compounds were prepared at a 2× high-test concentration by combining drug stock with tissue culture media at a ratio of 5 μL of drug to 995 μL of media. This 2× high-test sample was subsequently serially diluted in tissue culture media using 1/2 log dilutions. This series of 2× concentrated drug was subsequently diluted 1:1 by combining with an equal volume of cells in media in the 96-well plates used for the assay. Representative data for two of the compounds is also depicted in FIG. 5.
Leptomycin B is a control compound known to inhibit Rev function.

[2] = molecular target: T1, HIV-1 Rev (Human immunodeficiency virus type 1 group M subtype B, UniProt P04618); test: cell-based
T1 construct: expressed in transfected cells
T1 sequence (P04618 whole entry, looked up): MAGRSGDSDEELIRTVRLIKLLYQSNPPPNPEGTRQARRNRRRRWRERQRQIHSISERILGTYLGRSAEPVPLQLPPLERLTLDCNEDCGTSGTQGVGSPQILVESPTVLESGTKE
Method: as §1, with “The HIV-1 Rev assay is based upon the use of a reporter for detecting whether drug candidates are capable of inhibiting the function of the viral Rev protein.” left out, “chemicals.” for “chemicals. Furthermore, the cell line for this assay has been engineered to use a second similar reporter (Firefly Luciferase) that detects whether drug candidates are toxic.”
as §2, with “assay.” for “assay. Representative data for two of the compounds is also depicted in FIG. 5.”

[3] = tested on: U1 cells latently infected with HIV-1; test: U1 latency activation assay (TNF-α induced, supernatant reverse transcriptase); format: cell-based; conditions: U1 cell assay
Method: U1 cells were obtained from the AIDS Research and Reference Reagent Program and maintained under standard culture conditions in RPMI 1640 supplemented with 10% fetal bovine serum (heat inactivated), 2 mM L-glutamine, 100 U/mL penicillin and 100 μg/mL streptomycin. U1 cells are derived from the histocytic leukemia cell line U937, and contain an integrated copy of a cytokine and/or phorbol inducible provirus (HIV-1IIIB). Cultures were maintained in such a way as to ensure exponential growth of the populations. Addition of TNF-α to the cell culture induces HIV-1, so that inhibition of virus production indicates an inhibition of a post-integration function of the HIV-1 life cycle. This is where an inhibitor of Rev function would be expected to act. […]
(§3) At the time of the assay, cells were collected by centrifugation and counted by hemacytometer. If cell viability by Trypan Blue dye exclusion was less than 70% the assay was terminated. The cells were adjusted to 5×10^4 cells/mL and 100 μL placed in 96 well plates with 100 μL media containing a final concentration of 5 ng/mL TNF-α and the test compound. Cultures were incubated for 3 days and supernatants harvested. Compound toxicity was determined by MTS dye reduction. Virus expression was measured by supernatant reverse transcriptase activity.
Reverse transcriptase was assayed to measure virus particle release as described above for the PBMC assay.
as §2, with “U1 latency” for “Rev”, “which are listed” for “as shown”, “table” for “Table”, “3. Compounds were tested using the maximum high-test concentration possible based on the supplied stocks.” for “3.”, “Temacrazine a known inhibitor of HIV transcription was used as a control compound that is active in the post-integration part” for “Representative data for two”, “HIV life cycle.” for “compounds is also depicted in FIG. 5.”
(§4) Compounds were tested using the maximum high-test concentration possible based on the supplied stocks. Compounds were prepared at a 2× high-test concentration by combining drug stock with tissue culture media at a ratio of 5 μL of drug to 995 μL of media. This 2× high-test (HT) sample was subsequently serially diluted in tissue culture media using 1/2 log dilutions. This series of 2× concentrated drug was subsequently diluted 1:1 by combining with an equal volume of cells in media in the 96-well plates used for the assay.

[4] = MTS staining for cell viability in U1 cell assay; format: cell-based; conditions: human, U1 cells stimulated with TNF-α, read-out: TC50
Method: as §3
(§5) At assay termination, the assay plates were stained with the soluble tetrazolium-based dye MTS (CellTiter 96 Reagent, Promega) to determine cell viability and quantify compound toxicity as described for the PBMC assay.
(§6) Compounds were tested in the U1 latency assay using the maximum high-test concentration possible based on the supplied stocks which are listed in table 3. Compounds were tested using the maximum high-test concentration possible based on the supplied stocks. Compounds were prepared at a 2× high-test concentration by combining drug stock with tissue culture media at a ratio of 5 μL of drug to 995 μL of media. This 2× high-test sample was subsequently serially diluted in tissue culture media using 1/2 log dilutions. This series of 2× concentrated drug was subsequently diluted 1:1 by combining with an equal volume of cells in media in the 96-well plates used for the assay. Temacrazine a known inhibitor of HIV transcription was used as a control compound that is active in the post-integration part of the HIV life cycle.
as §4

[5] = tested on: fresh human PBMCs; test: MTS staining for PBMC viability to measure cytotoxicity; format: cell-based
Method: (§7) For the standard PBMC assay, PHA-P stimulated cells from at least two normal donors were pooled (mixed together), diluted in fresh medium to a final concentration of 1×10^6 cells/mL, and plated in the interior wells of a 96 well round bottom microplate at 50 μL/well (5×10^4 cells/well) in a standard format developed by the Infectious Disease Research department of Southern Research Institute. Pooling (mixing) of mononuclear cells from more than one donor is used to minimize the variability observed between individual donors, which results from quantitative and qualitative differences in HIV infection and overall response to the PHA and IL-2 of primary lymphocyte populations. Each plate contains virus/cell control wells (cells plus virus), experimental wells (drug plus cells plus virus) and compound control wells (drug plus media without cells, necessary for MTS monitoring of cytotoxicity). Since HIV-1 is not cytopathic to PBMCs, this allows the use of the same assay plate for both antiviral activity and cytotoxicity measurements. Test drug dilutions were prepared at a 2× concentration in microtiter tubes and 100 μL of each concentration was placed in appropriate wells using the standard format. 50 μL of a predetermined dilution of virus stock was placed in each test well (final MOI≅0.1). The PBMC cultures were maintained for seven days following infection at 37° C., 5% CO2. After this period, cell-free supernatant samples were collected for analysis of reverse transcriptase activity as a measure of virus release. Following removal of supernatant samples, compound cytotoxicity was measured by addition of MTS to the plates for determination of cell viability. Wells were also examined microscopically and any abnormalities were noted.
At assay termination, assay plates were stained with the soluble tetrazolium-based dye MTS (CellTiter 96 Reagent, Promega) to determine cell viability and quantify compound toxicity. The mitochondrial enzymes of metabolically active cells metabolize MTS to yield a soluble formazan product. This allows the rapid quantitative analysis of cell viability and compound cytotoxicity. […] At termination of the assay, 20 μL of MTS reagent was added per well. The microtiter plates were then incubated 4-6 hrs at 37° C. The incubation intervals were chosen based on empirically determined times for optimal dye reduction. Adhesive plate sealers were used in place of the lids, the sealed plate was inverted several times to mix the soluble formazan product and the plate was read spectrophotometrically at 490/650 nm with a Molecular Devices Vmax or SpectraMaxPlus plate reader.
as §4, with “tested in the PBMC assay” for “tested”, “stocks which are listed in table 3.” for “stocks.”, “high-test” for “high-test (HT)”

[6] = tested on: HIV-1 BR/93/021; test: Anti-HIV efficacy in fresh human PBMCs, reverse transcriptase readout, HIV-1 BR/93/021; format: cell-based
Method: (§8) Compounds were evaluated for their ability to inhibit HIV replication in fresh human PBMCs. The assay was performed as follows.
(§9) Fresh human PBMCs, seronegative for HIV and HBV, were isolated from screened donors (Interstate Blood Bank, Inc. Memphis, Tenn.). Cells were pelleted/washed 2-3 times by low speed centrifugation and re-suspension in PBS to remove contaminating platelets. The Leukophoresed blood was then diluted 1:1 with Dulbecco's Phosphate Buffered Saline (DPBS) and layered over 14 mL of Lymphocyte Separation Medium (LSM; Cellgro® by Mediatech, Inc.; density 1.078+/−0.002 g/ml; Cat.#85-072-CL) in a 50 mL centrifuge tube and then centrifuged for 30 minutes at 600×g. Banded PBMCs were gently aspirated from the resulting interface and subsequently washed 2× with PBS by low speed centrifugation. After the final wash, cells were enumerated by trypan blue exclusion and re-suspended at 1×10^7 cells/mL in RPMI 1640 supplemented with 15% Fetal Bovine Serum (FBS), and 2 mM L-glutamine, 4 μg/mL Phytohemagglutinin (PHA-P, Sigma). The cells were allowed to incubate for 48-72 hours at 37° C. After incubation, PBMCs were centrifuged and resuspended in RPMI 1640 with 15% FBS, 2 mM L-glutamine, 100 U/mL penicillin, 100 μg/mL streptomycin, 10 μg/mL gentamycin, and 20 U/mL recombinant human IL-2 (R&D Systems, Inc). IL-2 is included in the culture medium to maintain the cell division initiated by the PHA mitogenic stimulation. PBMCs were maintained in this medium at a concentration of 1-2×10^6 cells/mL with biweekly medium changes until used in the assay protocol. Cells were kept in culture for a maximum of two weeks before being deemed too old for use in assays and discarded. Monocytes were depleted from the culture as the result of adherence to the tissue culture flask.
as §7
(§10) A microtiter plate-based reverse transcriptase (RT) reaction was utilized (Buckheit et al., AIDS Research and Human Retroviruses 7:295-302, 1991). Tritiated thymidine triphosphate (3H-TTP, 80 Ci/mmol, NEN) was received in 1:1 dH2O:Ethanol at 1 mCi/mL. […]

[7] = tested on: HIV-1 NL4-3; test: Anti-HIV efficacy in fresh human PBMCs, reverse transcriptase readout, HIV-1 NL4-3; format: cell-based
Method: as §8, §9, §7, §10

[8] = tested on: U1 cells; test: MTS staining for cell viability in U1 cell assay; format: cell-based; conditions: analogs, Table 8, MTS, read-out: TC50 (the source's name)
Method: as §3, §5, §6, §4

Row | SMILES | IC50 ([3]; analogs, Table 8) [µM] | CC50 [8] [µM] | further results
1 | CCC(=C/[C@H](C)C/C=C/C(C)=C/[C@@H](C)C(=O)[C@@H](C)[C@H](O)[C@@H](C)C/C(C)=C/C(=O)O)/C=C/[C@@H]1OC(=O)C=C[C@@H]1C [Leptomycin B, reference compound] | – | – | CC50 [1]: 20 nM and 19.2 nM; IC50 ([2]; 50% inhibition of Renilla Luciferase, 24 hours, HeLa reporter line, read-out: IC50): 8.22 nM and 8.17 nM; TI (TC50/IC50) ([2]; Rev assay): 2.43 and 2.35
2 | O=c1c2ccccc2n2nnc3ccc(NCCCN4CCN(CCCNc5ccc6nnn7c8ccccc8c(=O)c5c67)CC4)c1c32 [Temacrazine, reference compound] | – | – | IC50 ([3]; Human immunodeficiency virus 1, 72 h, Table 6, 5 ng/mL TNF-α, 3 days, RT activity): 0.002 µM; TI (TC50/IC50) ([3]; Table 6): >250; CC50 at 3 days ([4]; Table 6, MTS): > 500 nM; CC50 at 3 days ([4]; Table 8, control, MTS): > 500 nM
3 | Cc1cn([C@H]2C[C@H](N=[N+]=[N-])[C@@H](CO)O2)c(=O)[nH]c1=O [AZT, reference compound] | – | – | CC50 [5]: > 1000 nM; TI (TC50/IC50) ([6]; HIV-1 BR/93/021, PBMCs): >404.86; IC50 ([6]; HIV-1 BR/93/021, fresh human PBMCs, seven days, RT activity): 2.47 nM; TI (TC50/IC50) ([7]; HIV-1 NL4-3, PBMCs): >1612.90; IC50 ([7]; HIV-1 NL4-3, fresh human PBMCs, seven days, RT activity): 0.62 nM
4 | Fc1ccccc1-c1nc(Nc2cccc(C(F)(F)F)c2)c2ccccc2n1 [Compound 748] | 10.5 | 33 | –
5 | Oc1nc(S)ncc1-c1ccccc1 [Compound 612] | > 75 | > 75 | –
6 | NC(=O)c1sc2nc3c(cc2c1N)CCCC3 [Compound 321] | 1.94 | > 75 | –
7 | CCOC(=O)c1ccc(Nc2ncnc3ccccc23)cc1 [Compound 720] | 3.66 | > 75 | –
8 | NC(=O)c1sc2nc3ccccc3cc2c1N [Compound 337] | 2.4 | > 75 | –
9 | O=C(c1cc(Cl)nnc1Cl)N1CCCC1 [Compound 514] | > 75 | > 75 | –
10 | COC(=O)c1ccc(Nc2nc(-c3ccccc3Cl)nc3ccccc23)cc1 [Compound 728] | 13.4 | 17.5 | –
11 | Nc1c2c(nc3ccc([N+](=O)[O-])cc13)CCCC2=O [Compound 213] | 0.826 | 58.6 | –
12 | COC(=O)c1cccc(Nc2nc(-c3ccccc3O)nc3ccccc23)c1 [Compound 752] | > 75 | > 75 | –
13 | CCOC(=O)c1sc(Cl)nc1C(F)(F)F [Compound 411] | > 75 | > 75 | –
